Experimental data reported in patent publication EP0001940A1, “Derivatives of eburnamenine, their preparation and their therapeutical application” (SYNTHELABO, priority 1977, dated 1979).

Test system: souris de souche CDl
Assay: Hypobaric anoxia survival time test (Anoxie hypobare)
Format: in vivo
Details: Mus musculus, ip; mean active dose = dose increasing survival time by 100% vs controls, determined graphically; mice, i.p. before the test; 190 mm Hg (5,25% oxygen); read-out: Anoxie hypobare DAM - i.p.
Excerpt: Des souris de souche CDl sont maintenues dans une atmosphère appauvrie en oxygène, par réalisation d'un vide partiel (190mm de mercure correspondant à 5,25% d'oxygène).
Le temps de survie des animaux est noté. Ce temps est augmenté par les agents capables de favoriser l'oxygénation tissulaire et en particulier cérébrale. Les composés étudiés sont administrés, à plusieurs doses, par voie intrapéritonéale, […] avant l'essai. Les pourcentages d'augmentation du temps de survie par rapport aux valeurs obtenues chez les animaux témoins sont calculés. La dose active moyenne (DAM), dose qui augmente le temps de survie de 100% est déterminée graphiquement
Les résultats sont indiqués dans le tableau II suivant pour un nombre représentatif de composés.

SMILES: CCC12CCCN3CCc4c(n(c5cccc(Br)c45)C(C(=O)OC)C1)C32 (stereo not drawn) [compound 1, bromo-9 désoxyvincamine]
- ED (100% increase in survival time): 8 mg/kg

SMILES: CCC12CCCN3CCc4c(n(c5ccc(Br)cc45)C(C(=O)OC)C1)C32 (stereo not drawn) [compound 2, bromo-10 désoxyvincamine]
- ED (100% increase in survival time): 3 mg/kg

SMILES: CCOC(=O)C1CC2(CC)CCCN3CCc4c(n1c1cccc(Br)c41)C32 (stereo not drawn) [compound 3]
- ED (100% increase in survival time): 8 mg/kg

SMILES: CCOC(=O)C1CC2(CC)CCCN3CCc4c(n1c1ccc(Br)cc41)C32 (stereo not drawn) [compound 4]
- ED (100% increase in survival time): 1 mg/kg

SMILES: CCC12CCCN3CCc4c(n(c5ccc(Br)cc45)C(C(=O)OC(C)C)C1)C32 (stereo not drawn) [compound 5]
- ED (100% increase in survival time): 3 mg/kg

SMILES: CCC12CCCN3CCc4c(n(c5ccc(Br)cc45)C(C(N)=O)C1)C32 (stereo not drawn) [compound 6, Bromo-10 désoxyvincaminamide]
- ED (100% increase in survival time): 1 mg/kg

SMILES: CCC12CCCN3CCc4c(n(c5ccc(Br)cc45)C(C(=O)NC)C1)C32 (stereo not drawn) [compound 7]
- ED (100% increase in survival time): 2 mg/kg

SMILES: CCN(CC)C(=O)C1CC2(CC)CCCN3CCc4c(n1c1ccc(Br)cc41)C32 (stereo not drawn) [compound 8]
- ED (100% increase in survival time): 4 mg/kg

SMILES: CCC12CCCN3CCc4c(n(c5ccc(Br)cc45)C(C(=O)NC4CC4)C1)C32 (stereo not drawn) [compound 9]
- ED (100% increase in survival time): 0.5 to 1 mg/kg

SMILES: CCCCOC(=O)C1(O)CC2(CC)CCCN3CCc4c(n1c1ccc(Br)cc41)C32 (stereo not drawn) [compound 13, bromo-10 vincaminate de n-butyle]
- ED (100% increase in survival time): 3 to 4 mg/kg

SMILES: CCOC(=O)C1(O)CC2(CC)CCCN3CCc4c(n1c1ccc(Br)cc41)C32 (stereo not drawn) [compound 14]
- ED (100% increase in survival time): 3 mg/kg

SMILES: CCOC(=O)C1=CC2(CC)CCCN3CCc4c(n1c1ccc(Br)cc41)C32 (stereo not drawn) [compound 18]
- ED (100% increase in survival time): 7 mg/kg
